Numbering of substitutions follows the chain as printed. Where two headings read alike, the source gives them in different places. One block for each compound: values may come before it.
What was measured:
Assay type in all cases: cell-based
TRPV3 (hTRPV3) [1] = target: T1, TRPV3 (hTRPV3) (Homo sapiens, UniProt Q8NET8, Q695L); test: whole-cell patch clamp
T1 sequence (Q8NET8 1-790 Q695L): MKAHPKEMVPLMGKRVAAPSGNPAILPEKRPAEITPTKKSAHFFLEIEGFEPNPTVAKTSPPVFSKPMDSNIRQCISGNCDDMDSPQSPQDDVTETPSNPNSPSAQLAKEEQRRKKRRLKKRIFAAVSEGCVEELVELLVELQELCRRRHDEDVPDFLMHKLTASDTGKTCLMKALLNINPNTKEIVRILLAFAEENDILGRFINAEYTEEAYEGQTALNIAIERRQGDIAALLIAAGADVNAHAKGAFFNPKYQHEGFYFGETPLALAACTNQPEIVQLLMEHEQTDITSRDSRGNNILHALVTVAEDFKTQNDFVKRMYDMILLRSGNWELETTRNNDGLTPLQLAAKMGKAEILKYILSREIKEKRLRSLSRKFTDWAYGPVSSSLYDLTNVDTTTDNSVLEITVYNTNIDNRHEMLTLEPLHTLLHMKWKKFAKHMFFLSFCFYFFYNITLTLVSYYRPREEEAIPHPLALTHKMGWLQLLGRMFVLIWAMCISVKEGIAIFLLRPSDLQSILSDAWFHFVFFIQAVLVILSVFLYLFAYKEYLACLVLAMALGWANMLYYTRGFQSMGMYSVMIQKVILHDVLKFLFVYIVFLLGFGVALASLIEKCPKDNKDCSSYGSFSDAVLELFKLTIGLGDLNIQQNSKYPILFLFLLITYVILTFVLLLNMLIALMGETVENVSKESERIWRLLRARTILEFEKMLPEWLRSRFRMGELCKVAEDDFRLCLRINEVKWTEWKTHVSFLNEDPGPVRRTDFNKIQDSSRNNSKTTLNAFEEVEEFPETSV

TRPV3 (hTRPV3) [2] = target: T2, TRPV3 (hTRPV3) (Homo sapiens, UniProt Q8NET8); test: cryo-EM structure
T2 sequence (Q8NET8 1-790): T1 sequence (Q8NET8 1-790 Q695L) with L695Q

mTRPV3 = target: T3, mTRPV3 (Mus musculus, UniProt Q8K424); test: whole-cell patch clamp, inhibition of citronellal-evoked currents
T3 sequence (Q8K424 1-791): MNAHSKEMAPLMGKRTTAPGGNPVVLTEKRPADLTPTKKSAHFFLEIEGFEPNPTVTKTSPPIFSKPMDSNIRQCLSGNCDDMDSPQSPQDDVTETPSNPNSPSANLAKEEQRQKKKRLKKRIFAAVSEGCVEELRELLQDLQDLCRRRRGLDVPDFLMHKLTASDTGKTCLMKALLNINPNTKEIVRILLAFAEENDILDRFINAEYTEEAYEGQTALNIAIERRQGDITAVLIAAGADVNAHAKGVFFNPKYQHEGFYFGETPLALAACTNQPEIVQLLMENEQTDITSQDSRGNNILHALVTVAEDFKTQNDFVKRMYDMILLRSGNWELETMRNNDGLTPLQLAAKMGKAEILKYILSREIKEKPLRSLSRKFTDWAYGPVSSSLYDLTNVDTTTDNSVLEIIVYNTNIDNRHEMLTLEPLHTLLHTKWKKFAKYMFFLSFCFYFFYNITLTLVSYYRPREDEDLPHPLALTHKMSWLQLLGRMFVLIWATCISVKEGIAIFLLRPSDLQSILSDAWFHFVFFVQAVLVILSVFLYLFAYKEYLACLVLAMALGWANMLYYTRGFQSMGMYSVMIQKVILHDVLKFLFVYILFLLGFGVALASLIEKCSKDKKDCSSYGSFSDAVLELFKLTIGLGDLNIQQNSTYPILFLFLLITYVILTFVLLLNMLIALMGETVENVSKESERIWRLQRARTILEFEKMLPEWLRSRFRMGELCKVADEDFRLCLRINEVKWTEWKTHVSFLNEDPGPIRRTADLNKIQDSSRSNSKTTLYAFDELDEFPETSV

TRPV3 (hTRPV3) [3] = target: T2, TRPV3 (hTRPV3); test: cryo-EM structure; remark: listed apart in the source

EC50 (TRPV3 (hTRPV3) [1]): 420 ± 20 µM
EC50 (TRPV3 (hTRPV3) [2]): 6.19 ± 0.6 mM
SMILES: C=CC(C)(O)CCC=C(C)C (stereo not shown) [linalool]

IC50 (mTRPV3): 730 ± 50 nM
SMILES: CCCCOc1ccc(C(=O)CCN2CCCCC2)cc1 [dyclonine]

EC50 (TRPV3 (hTRPV3) [3]): 6.61 ± 0.93 mM
SMILES: CC(C)=CCC/C(C)=C/C=O [citral]
